Assay results from ChEMBL document CHEMBL5303304, “EUbOPEN Chemogenomics Library - IncuCyte” (2023).

What was measured:
Assay type in all cases: toxicity, cell-based
[1] = tested on: Fibroblast; test: Incucyte cell viability with human fibroblast; conditions: 10 µM, compound concentration 10 uM
[2] = tested on: HEK-293T; test: Incucyte cell viability with HEK293T; conditions: human, 10 µM, compound concentration 10 uM
[3] = tested on: U2OS; test: Incucyte cell viability with U2OS; conditions: human, 10 µM, compound concentration 10 uM
Also: unitless GR value; below 1 slowed growth and below 0 cell loss.

Cn1ncc(-c2nc(N[C@H]3CC[C@H](N)CC3)ncc2Cl)c1CC1CC1 [BTX-A51]
Growth Rate ([1]; 0 h, replicate number 1): -0.32
Growth Rate ([1]; 0 h, replicate number 2): -0.85
Growth Rate ([2]; 0 h, replicate number 1): -0.79
Growth Rate ([2]; 24 h, replicate number 1): 0.57
Growth Rate ([2]; 24 h, replicate number 2): 0.67
Growth Rate ([3]; 18 h, replicate number 2): 0.89
Growth Rate ([3]; 24 h, replicate number 2): 0.74

C=C1/C(=C\C=C2/CCC[C@]3(C)[C@@H]([C@H](C)CCCC(C)(C)O)CC[C@@H]23)C[C@@H](O)C[C@@H]1O [CALCITRIOL]
Growth Rate ([1]; 6 h, replicate number 1): 0.62
Growth Rate ([1]; 6 h, replicate number 2): 0.1
Growth Rate ([1]; 12 h, replicate number 1): 0.49
Growth Rate ([1]; 12 h, replicate number 2): 0.64
Growth Rate ([1]; 18 h, replicate number 1): 0.64
Growth Rate ([1]; 24 h, replicate number 1): 0.96
Growth Rate ([2]; 0 h, replicate number 2): -0.91
Growth Rate ([2]; 6 h, replicate number 1): 0.8
Growth Rate ([2]; 6 h, replicate number 2): 0.4
Growth Rate ([2]; 12 h, replicate number 1): 0.61
Growth Rate ([2]; 12 h, replicate number 2): 0.7
Growth Rate ([2]; 18 h, replicate number 1): 0.44
Growth Rate ([2]; 18 h, replicate number 2): 0.67
Growth Rate ([2]; 24 h, replicate number 1): 0.53
Growth Rate ([2]; 24 h, replicate number 2): 0.55
Growth Rate ([3]; 0 h, replicate number 1): -0.07
Growth Rate ([3]; 0 h, replicate number 2): 0.74
Growth Rate ([3]; 6 h, replicate number 1): 0.27
Growth Rate ([3]; 6 h, replicate number 2): 0.45
Growth Rate ([3]; 12 h, replicate number 1): -0.16
Growth Rate ([3]; 12 h, replicate number 2): 0.63
Growth Rate ([3]; 18 h, replicate number 1): 0.83
Growth Rate ([3]; 18 h, replicate number 2): 0.67
Growth Rate ([3]; 24 h, replicate number 1): 0.91
Growth Rate ([3]; 24 h, replicate number 2): 0.67

Oc1cc2c(cc1O)CN(C(=S)NCCc1ccc(Cl)cc1)CCC2 [CAPSAZEPINE]
Growth Rate ([1]; 0 h, replicate number 2): -0.78
Growth Rate ([1]; 6 h, replicate number 2): -0.98
Growth Rate ([1]; 12 h, replicate number 2): -0.04
Growth Rate ([1]; 18 h, replicate number 1): -0.47
Growth Rate ([1]; 18 h, replicate number 2): 0.44
Growth Rate ([1]; 24 h, replicate number 2): 0.57
Growth Rate ([2]; 6 h, replicate number 1): -0.22
Growth Rate ([2]; 6 h, replicate number 2): -0.37
Growth Rate ([2]; 12 h, replicate number 1): 0.04
Growth Rate ([2]; 12 h, replicate number 2): 0.11
Growth Rate ([2]; 18 h, replicate number 1): 0.54
Growth Rate ([2]; 18 h, replicate number 2): 0.51
Growth Rate ([2]; 24 h, replicate number 2): 0.55
Growth Rate ([3]; 0 h, replicate number 2): -0.38
Growth Rate ([3]; 6 h, replicate number 2): 0.57
Growth Rate ([3]; 12 h, replicate number 1): 0.86
Growth Rate ([3]; 12 h, replicate number 2): 0.84
Growth Rate ([3]; 18 h, replicate number 1): 0.88
Growth Rate ([3]; 18 h, replicate number 2): 0.75
Growth Rate ([3]; 24 h, replicate number 1): 0.77
Growth Rate ([3]; 24 h, replicate number 2): 0.93

COC[C@H](O)Cn1c(=O)cnn(-c2ccc(Cl)c(C(=O)NCC3(O)CCCCCC3)c2)c1=O [CE-224535]
Growth Rate ([1]; 0 h, replicate number 1): -0.26
Growth Rate ([1]; 0 h, replicate number 2): -1
Growth Rate ([1]; 12 h, replicate number 1): -1
Growth Rate ([1]; 18 h, replicate number 1): -0.48
Growth Rate ([2]; 0 h, replicate number 2): 0.38
Growth Rate ([2]; 6 h, replicate number 1): 0.55
Growth Rate ([3]; 0 h, replicate number 1): -0.6

Cc1cc(Nc2ncc(Cl)c(Nc3ccccc3S(=O)(=O)C(C)C)n2)c(OC(C)C)cc1C1CCNCC1 [CERITINIB]
Growth Rate ([1]; 0 h, replicate number 1): -0.31
Growth Rate ([1]; 6 h, replicate number 2): -1
Growth Rate ([1]; 12 h, replicate number 1): -1
Growth Rate ([1]; 12 h, replicate number 2): -0.99
Growth Rate ([1]; 18 h, replicate number 1): -0.92
Growth Rate ([1]; 18 h, replicate number 2): -0.93
Growth Rate ([1]; 24 h, replicate number 1): -0.63
Growth Rate ([1]; 24 h, replicate number 2): -0.84
Growth Rate ([2]; 6 h, replicate number 1): -0.91
Growth Rate ([2]; 6 h, replicate number 2): -0.87
Growth Rate ([2]; 12 h, replicate number 1): -0.6
Growth Rate ([2]; 12 h, replicate number 2): -0.49
Growth Rate ([2]; 18 h, replicate number 1): -0.4
Growth Rate ([2]; 18 h, replicate number 2): -0.35
Growth Rate ([2]; 24 h, replicate number 1): -0.33
Growth Rate ([2]; 24 h, replicate number 2): -0.26
Growth Rate ([3]; 0 h, replicate number 1): 0.45
Growth Rate ([3]; 6 h, replicate number 1): -0.98
Growth Rate ([3]; 6 h, replicate number 2): -0.96
Growth Rate ([3]; 12 h, replicate number 1): -0.79
Growth Rate ([3]; 12 h, replicate number 2): -0.82
Growth Rate ([3]; 18 h, replicate number 1): -0.64
Growth Rate ([3]; 18 h, replicate number 2): -0.68
Growth Rate ([3]; 24 h, replicate number 1): -0.57
Growth Rate ([3]; 24 h, replicate number 2): -0.61

CN(C)CCCN1c2ccccc2Sc2ccc(Cl)cc21.Cl [CHLORPROMAZINE HYDROCHLORIDE]
Growth Rate ([1]; 0 h, replicate number 2): 0.33
Growth Rate ([1]; 6 h, replicate number 1): -0.57
Growth Rate ([1]; 12 h, replicate number 1): -0.38
Growth Rate ([1]; 18 h, replicate number 1): -0.35
Growth Rate ([1]; 24 h, replicate number 1): -0.22
Growth Rate ([2]; 0 h, replicate number 2): -0.89
Growth Rate ([2]; 6 h, replicate number 1): 0.64
Growth Rate ([2]; 6 h, replicate number 2): 0.48
Growth Rate ([2]; 12 h, replicate number 1): 0.66
Growth Rate ([2]; 12 h, replicate number 2): 0.52
Growth Rate ([2]; 18 h, replicate number 1): 0.18
Growth Rate ([2]; 18 h, replicate number 2): 0.37
Growth Rate ([2]; 24 h, replicate number 1): 0.15
Growth Rate ([2]; 24 h, replicate number 2): 0.19
Growth Rate ([3]; 0 h, replicate number 1): -0.42
Growth Rate ([3]; 0 h, replicate number 2): -0.21
Growth Rate ([3]; 6 h, replicate number 2): -0.06
Growth Rate ([3]; 12 h, replicate number 1): 0.42
Growth Rate ([3]; 12 h, replicate number 2): 0.12
Growth Rate ([3]; 18 h, replicate number 1): 0.77
Growth Rate ([3]; 18 h, replicate number 2): 0.33
Growth Rate ([3]; 24 h, replicate number 1): 0.91
Growth Rate ([3]; 24 h, replicate number 2): 0.39

C[C@H](CCC(=O)O)[C@H]1CC[C@H]2[C@@H]3[C@H](O)C[C@@H]4C[C@H](O)CC[C@]4(C)[C@H]3C[C@H](O)[C@]12C [CHOLIC ACID]
Growth Rate ([1]; 0 h, replicate number 1): 0.6
Growth Rate ([1]; 6 h, replicate number 1): -0.41
Growth Rate ([1]; 6 h, replicate number 2): 0.33
Growth Rate ([1]; 12 h, replicate number 1): 0.82
Growth Rate ([1]; 12 h, replicate number 2): 0.56
Growth Rate ([1]; 18 h, replicate number 1): 0.38
Growth Rate ([1]; 18 h, replicate number 2): 0.65
Growth Rate ([1]; 24 h, replicate number 1): 0.81
Growth Rate ([1]; 24 h, replicate number 2): 0.97
Growth Rate ([2]; 0 h, replicate number 1): 0.14
Growth Rate ([2]; 0 h, replicate number 2): 0.01
Growth Rate ([2]; 24 h, replicate number 2): 1
Growth Rate ([3]; 0 h, replicate number 2): 0.9
Growth Rate ([3]; 6 h, replicate number 2): 0.92
Growth Rate ([3]; 12 h, replicate number 2): 0.92
Growth Rate ([3]; 18 h, replicate number 1): 0.98
Growth Rate ([3]; 24 h, replicate number 2): 0.97
